In US20210284621A1 (priority 2018, published 2021):

Test system: LPS-induced PBMCs
Assay: Inflammatory cytokine release from LPS-induced PBMCs (Luminex)
Type: cell-based, human
Settings: fold change from LPS-treated PBMCs, compounds 10 μM (DEX 1 μg/ml) 2 h, then LPS 0.1 μg/ml 24 h, negative = reduced
Outline: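 Human PBMCs from healthy donors pretreated 2 hours with compound at 10 μM (triplicate), then stimulated with 0.1 μg/ml LPS for 24 hours. Supernatant cytokines measured by magnetic Luminex; values given as fold change versus LPS-treated PBMCs, negative meaning reduction; cytotoxicity also assessed.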

[1] = OOR = out of standard curve range

With `CCCCCCC(C)(C)c1cc(O)c2c(c1)OC(C)(C)[C@@H]1CC=C(C(=O)NC(C)(C)CCO)C[C@@H]21` [Compound 15, (6aR,10aR)-1-Hydroxy-N-(4-hydroxy-2-methylbutan-2-yl)-6,6-dimethyl-3-(2-methyloctan-2-yl)-6a,7,10,10a-tetrahydro-6H-benzo[c]chromene-9-carboxamide] as the compound, how does the IL17A read?
Its IL17A is −3.1 fold change.

What about the IL-1β of the same compound?
Its IL-1β is −5.9 fold change.

What about the IL-4 of the same compound?
Its IL-4 is −2.7 fold change.

What about the IL-6 of the same compound?
The IL-6 was −107.7 fold change.

And the IL-8?
Its IL-8 is −2.4 fold change.

What about the IL-10 of the same compound?
Its IL-10 is −299.9 fold change.

What about the MCP-1 of the same compound?
The MCP-1 was −213.2 fold change.

And the TNFα?
Its TNFα is −75.9 fold change.

And the “IL-12 (p70)” value [1]?
The value was “OOR”.

What about the L-31 [1] of the same compound?
Its L-31 is “OOR”.
